Molecular target: T1, HIV-1 integrase (Human immunodeficiency virus type 1 group M subtype B, UniProt P04585)
T1 construct: Purified recombinant HIV-1 integrase was incubated with immobilized precleaved substrate DNA
Experiment: In vitro activity against integrase, Method A (immobilized precleaved substrate DNA, biotinylated target DNA, 96 well plate)
Assay type: biochemical
Details: Assay Method A, read-out: Percent inhibition of HIV Integrase at 70 uM
Description: The in vitro activities, against integrase, of compounds of the present invention were measured by one of the following three methods.
In Method A, the in vitro activity against integrase was measured in a manner which was similar to previously disclosed methods (cf. Hazuda, D. J.; Felock, P.; Witmer, M.; Wolfe, A.; Stillmock, K.; Grobler, J. A.; Espeseth, A.; Gabryelski, L.; Schleif, W.; Blau, C.; Miller, M. D. Science, 2000, 287, 646) Purified recombinant HIV-1 integrase was incubated with immobilized precleaved substrate DNA in a 96 well plate for 20 min at 37° C. After the integration complex was formed, compounds at desired concentrations were added to the wells followed by a 10 min incubation at 37° C. Biotinyted Target DNA was then added and the reaction was carried out for an additional 1 hour at 37° C. Wells were then washed thoroughly to remove any free DNA and integration activity was measured by using a commercial kit to quantitate the amount of biotinyted target DNA integrated into the substrate.

SMILES | inhibition at 70 µM [%]
CN(C(=O)/C=C(\O)C(=O)O)C(c1ccc(F)cc1)c1cccnc1 (centres unmarked) [Compound 77, 3-{[(4-Fluoro-phenyl)-pyridin-3-yl-methyl]-methyl-carbamoyl}-2-hydroxy-acrylic acid] | 60
O=C(O)/C(O)=C/C(=O)N(Cc1ccc(F)cc1)Cc1csc2ccc(Cl)cc12 [Compound 21, 3-[(5-Chloro-benzo[b]thiophen-3-ylmethyl)7(4-fluoro-benzyl)-carbamoyl]-2-hydroxy-acrylic acid] | 98
CN(Cc1cccc(-c2ccccc2)c1)C(=O)/C=C(\O)C(=O)O [Compound 34, 3-(Biphenyl-3-ylmethyl-methyl-carbamoyl)-2-hydroxy-acrylic acid] | 85
COc1ccc(CN(Cc2ccc(F)cc2)C(=O)/C=C(\O)C(=O)O)c(OC)c1 [Compound 35, 3-[(2,4-Dimethoxy-benzyl)-(4-fluoro-benzyl)-carbamoyl]-2-hydroxy-acrylic acid] | 95.5
O=C(O)/C(O)=C/C(=O)N(Cc1ccc(F)cc1)Cc1ccc(F)cc1F [Compound 25, 3-[(2,4-Difluoro-benzyl)-(4-fluoro-benzyl)-carbamoyl]-2-hydroxy-acrylic acid] | 96.5
CC(c1ccccc1)N(Cc1ccc(F)cc1)C(=O)/C=C(\O)C(=O)O (centres unmarked) [Compound 23, 3-[(4-Fluoro-benzyl)-(1-phenyl-ethyl)-carbamoyl]-2-hydroxy-acrylic acid] | 55
CN(Cc1ccc(F)c2ccccc12)C(=O)/C=C(\O)C(=O)O [Compound 41, 3-[(4-Fluoro-naphthalen-1-ylmethyl)-methyl-carbamoyl]-2-hydroxy-acrylic acid] | 95
CN(Cc1ccc(OCc2ccccc2)cc1)C(=O)/C=C(\O)C(=O)O [Compound 36, 3-[(4-Benzyloxy-benzyl)-methyl-carbamoyl]-2-hydroxy-acrylic acid] | 30
CCN(Cc1ccc(F)cc1)C(=O)/C=C(\O)C(=O)O [Compound 32, 3-[Ethyl-(4-fluoro-benzyl)-carbamoyl]-2-hydroxy-acrylic acid] | 93
CN(Cc1cccc(C(F)(F)F)c1)C(=O)/C=C(\O)C(=O)O [Compound 37, 2-Hydroxy-3-[methyl-(3-trifluoromethyl-benzyl)-carbamoyl]-acrylic acid] | 82.5
CN(Cc1ccccc1-c1ccccc1)C(=O)/C=C(\O)C(=O)O [Compound 39, 3-(Biphenyl-2-ylmethyl-methyl-carbamoyl)-2-hydroxy-acrylic acid] | 85
CN(CCc1ccc(F)cc1)C(=O)/C=C(\O)C(=O)O [Compound 22, 3-{[2-(4-Fluoro-phenyl)-ethyl]-methyl-carbamoyl}-2-hydroxy-acrylic acid] | 75
COc1cccc(CN(C)C(=O)/C=C(\O)C(=O)O)c1 [Compound 33, 2-Hydroxy-3-[(3-methoxy-benzyl)-methyl-carbamoyl]-acrylic acid] | 90
O=C(O)/C(O)=C/C(=O)N(CCc1ccccc1)Cc1ccccc1 [Compound 13, 3-(Benzyl-phenethyl-carbamoyl)-2-hydroxy-acrylic acid] | 94
CN(Cc1ccccc1)C(=O)/C=C(\O)C(=O)O [Compound 17, 3-(Benzyl-methyl-carbamoyl)-2-hydroxy-acrylic acid] | 89.5
CN(Cc1ccccc1OCc1ccc(F)cc1)C(=O)/C=C(\O)C(=O)O [Compound 82, 3-{[2-(4-Fluoro-benzyloxy)-benzyl]-methyl-carbamoyl}-2-hydroxy-acrylic acid] | 80
O=C(O)/C(O)=C/C(=O)N(Cc1ccc(F)cc1)Cc1ccccc1Cl [Compound 19, 3-[(2-Chloro-benzyl)-(4-fluoro-benzyl)-carbamoyl]-2-hydroxy-acrylic acid] | 96.5
COCCN(Cc1ccc(F)cc1)C(=O)/C=C(\O)C(=O)O [Compound 42, 3-[(4-Fluoro-benzyl)-(2-methoxy-ethyl)-carbamoyl]-2-hydroxy-acrylic acid] | 91
COc1ccc(CN(C)C(=O)/C=C(\O)C(=O)O)cc1 [Compound 31, 2-Hydroxy-3-[(4-methoxy-benzyl)-methyl-carbamoyl]-acrylic acid] | 82
O=C(O)/C(O)=C/C(=O)N(CCc1ccc(F)cc1)Cc1ccccc1Cl [Compound 18, 3-{(2-Chloro-benzyl)-[2-(4-fluoro-phenyl)-ethyl]-carbamoyl}-2-hydroxy-acrylic acid] | 89.5
O=C(O)/C(O)=C/C(=O)N(CCCc1ccccc1)Cc1ccc(F)cc1 [Compound 43, 3-[(4-Fluoro-benzyl)-(3-phenyl-propyl)-carbamoyl]-2-hydroxy-acrylic acid] | 93.5

SMILES | inhibition at 70 µM [%]
COc1ccc(C(c2ccc(OC)cc2)N(C)C(=O)/C=C(\O)C(=O)O)cc1 [Compound 6, 3-{[Bis-(4-methoxy-phenyl)-methyl]-methyl-carbamoyl}-2-hydroxy-acrylic acid] | 75
CN(Cc1cccc(Cc2ccc(F)cc2)c1)C(=O)/C=C(\O)C(=O)O [Compound 2, 3-{[3-(4-Fluoro-benzyl)-benzyl]-methyl-carbamoyl}-2-hydroxy-acrylic acid] | 88
O=C(O)/C(O)=C/C(=O)N(CCc1ccc(F)cc1)Cc1csc2ccc(Cl)cc12 [Compound 20, 3-{(5-Chloro-benzo[b]thiophen-3-ylmethyl)-[2-(4-fluoro-phenyl)-ethyl]-carbamoyl}-2-hydroxy-acrylic acid] | 97.5
O=C(O)/C(O)=C/C(=O)N(Cc1ccc(F)cc1)Cc1ccc(Cl)cc1 [Compound 24, 3-[(4-Chloro-benzyl)-(4-fluoro-benzyl)-carbamoyl]-2-hydroxy-acrylic acid] | 90
CN(C(=O)/C=C(\O)C(=O)O)C(c1ccccc1)c1ccccc1 [Compound 7, 3-(Benzhydryl-methyl-carbamoyl)-2-hydroxy-acrylic acid] | 32
O=C(O)/C(O)=C/C(=O)N(Cc1ccc(F)cc1)c1ccc(F)cc1OCc1ccc(F)cc1 [Compound 88, 3-{(4-Fluoro-benzyl)-[4-fluoro-2-(4-fluoro-benzyloxy)-phenyl]-carbamoyl}-2-hydroxy-acrylic acid] | 90
CC(C)N(Cc1ccc(F)cc1)C(=O)/C=C(\O)C(=O)O [Compound 29, 3-[(4-Fluoro-benzyl)-isopropyl-carbamoyl]-2-hydroxy-acrylic acid] | 38
O=C(O)/C(O)=C/C(=O)N(Cc1ccc(F)cc1)Cc1cccc(Cl)c1 [Compound 28, 3-[(3-Chloro-benzyl)-(4-fluoro-benzyl)-carbamoyl]-2-hydroxy-acrylic acid] | 96.5
CN(Cc1csc2ccc(Cl)cc12)C(=O)/C=C(\O)C(=O)O [Compound 15, 3-[(5-Chloro-benzo[b]thiophen-3-ylmethyl)-methyl-carbamoyl]-2-hydroxy-acrylic acid] | 97
CN(Cc1cccc(OCc2ccc(F)cc2)c1)C(=O)/C=C(\O)C(=O)O [Compound 3, 3-{[3-(4-Fluoro-benzyloxy)-benzyl]-methyl-carbamoyl}-2-hydroxy-acrylic acid] | 99
CC(C)(C)N(Cc1ccc(F)cc1)C(=O)/C=C(\O)C(=O)O [Compound 27, 3-[tert-Butyl-(4-fluoro-benzyl)-carbamoyl]-2-hydroxy-acrylic acid] | 33.5
CN(Cc1ccc(OCc2ccc(F)cc2)cc1)C(=O)/C=C(\O)C(=O)O [Compound 1, 3-{[4-(4-Fluoro-benzyloxy)-benzyl]-methyl-carbamoyl}-2-hydroxy-acrylic acid] | 40
CN(Cc1ccccc1F)C(=O)/C=C(\O)C(=O)O [Compound 38, 3-[(2-Fluoro-benzyl)-methyl-carbamoyl]-2-hydroxy-acrylic acid] | 70
CN(C(=O)/C=C(\O)C(=O)O)C(c1ccc(F)cc1)c1ccc(F)cc1 [Compound 5, 3-{[Bis-(4-fluoro-phenyl)-methyl]-methyl-carbamoyl}-2-hydroxy-acrylic acid] | 65
CN(Cc1cccc(F)c1)C(=O)/C=C(\O)C(=O)O [Compound 40, 3-[(3-Fluoro-benzyl)-methyl-carbamoyl]-2-hydroxy-acrylic acid] | 90
Cc1ccc(CN(C)C(=O)/C=C(\O)C(=O)O)cc1 [Compound 30, 2-Hydroxy-3-[methyl-(4-methyl-benzyl)-carbamoyl]-acrylic acid] | 84
O=C(O)/C(O)=C/C(=O)N(Cc1ccc(F)cc1)Cc1ccc(F)c(F)c1 [Compound 26, 3-[(3,4-Difluoro-benzyl)-(4-fluoro-benzyl)-carbamoyl]-2-hydroxy-acrylic acid] | 97
CN(C(=O)/C=C(\O)C(=O)O)C(c1ccc(Cl)cc1)c1ccc(Cl)cc1 [Compound 4, 3-{[Bis-(4-chloro-phenyl)-methyl]-methyl-carbamoyl}-2-hydroxy-acrylic acid] | 90
O=C(O)CNC(=O)/C(O)=C/C(=O)N(Cc1ccc(F)cc1)Cc1ccc(F)cc1 [Compound 145, {3-[Bis-(4-fluoro-benzyl)-carbamoyl]-2-hydroxy-acryloylamino}-acetic acid] | 95
CN(Cc1ccccc1Br)C(=O)/C=C(\O)C(=O)O [Compound 12, 3-[(2-Bromo-benzyl)-methyl-carbamoyl]-2-hydroxy-acrylic acid] | 85
